Entries after “also recorded” stand apart in the source; their conditions may differ. Square brackets hold non-standard residues; d marks the D form. Peptide text beside a SMILES is read from it. * marks the point of attachment. ξ: configuration not given here. Dansyl = CN(C)c1cccc2c(S(=O)(=O)*)cccc12; ξQ = NC(=O)CCC(N)C(=O)O; Ahx = NCCCCCC(=O)O
Tests used:
[1] = biological target: T1, NK6-AP (Escherichia coli, UniProt P00634); test: Degree of labeling of dual labeled protein (absorbance at 280 nm and 330 nm); settings: after His-tag purification
T1 construct: NK6-AP; MKHKGSTPEMP-ALGLKLEHHHHHH; made in house
T1 sequence (P00634 22-471): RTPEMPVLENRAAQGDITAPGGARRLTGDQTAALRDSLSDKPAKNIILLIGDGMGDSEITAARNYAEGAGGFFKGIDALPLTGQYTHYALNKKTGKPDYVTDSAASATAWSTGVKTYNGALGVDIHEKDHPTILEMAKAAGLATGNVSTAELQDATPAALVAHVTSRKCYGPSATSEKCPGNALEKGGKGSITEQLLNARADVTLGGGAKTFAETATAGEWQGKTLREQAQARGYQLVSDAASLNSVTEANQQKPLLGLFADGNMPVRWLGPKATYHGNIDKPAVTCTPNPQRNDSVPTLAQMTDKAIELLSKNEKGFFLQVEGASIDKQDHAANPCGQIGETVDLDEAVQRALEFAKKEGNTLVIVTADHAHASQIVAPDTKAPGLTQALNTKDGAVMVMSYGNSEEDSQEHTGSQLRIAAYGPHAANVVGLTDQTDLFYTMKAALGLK
Description: By His-tag purification on a Ni-NTA column, the dual labeled protein was separated from an excess of Dns-β-Ala-QG-biotin. An excess of the imidazole used in the elution step was removed by gel filtration purification on a PD-10 column with 20 mM Tris-HCl (pH 8) being used as an elution buffer.
The resulting dual labeled protein was concentrated with a suction-type centrifugal evaporator and an attempt was made to calculate the degree of its labeling by measuring the absorbance at 280 nm and 330 nm.

[2] = biological target: T2, MTG (Streptomyces mobaraensis, UniProt P81453); test: MTG-catalyzed introduction of fluorescent substrates into NK6-AP (SDS-PAGE, fluorescent imager); assay type: biochemical, microbial; settings: NK6-AP 0.5 mg/ml, MTG 1 U/ml; for Reactivity of MTG for fluorescent substrate (introduction into NK6-AP): substrate 1 mM, 10 mM Tris-HCl pH 8, overnight 4° C.
T2 construct: purchased AJINOMOTO (supplied as a gift)
T2 sequence (P81453 77-407): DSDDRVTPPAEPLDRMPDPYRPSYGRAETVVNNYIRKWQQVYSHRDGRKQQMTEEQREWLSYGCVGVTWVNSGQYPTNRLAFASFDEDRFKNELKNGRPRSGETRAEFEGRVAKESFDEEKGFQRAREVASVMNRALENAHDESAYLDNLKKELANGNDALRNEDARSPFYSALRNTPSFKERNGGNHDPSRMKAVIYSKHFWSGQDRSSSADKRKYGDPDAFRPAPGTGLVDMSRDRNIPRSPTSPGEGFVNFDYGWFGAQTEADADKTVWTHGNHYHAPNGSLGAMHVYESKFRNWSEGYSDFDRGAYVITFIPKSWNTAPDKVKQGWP
Description: To perform a binding reaction, the fluorescent substrate (FITC-ε-Acp-QG, FITC-β-Ala-QG, Flc-QG, TR-β-Ala-QG or Dns-ε-Acp-QG), NK6-AP and MTG were added to 10 mM Tris-HCl (pH 8) to give respective final concentrations of 1 mM, 0.5 mg/ml and 1 U/ml and they were thoroughly agitated and the resulting solution was left to stand overnight at 4° C. For the purpose of comparison, an MTG-free sample was prepared.
After the reaction, the samples were subjected to SDS-polyacrylamide gel electrophoresis (SDS-PAGE). The gel from SDS-PAGE was examined with a fluorescent imager before it was stained with Coomassie Brilliant Blue (CBB) in solution. For the sample containing Dns-ε-Acp-QG, examination was made with a transilluminator.
(§1) A study was made using FITC-β-Ala-QG as a fluorescent substrate. The reaction conditions for introducing FITC-β-Ala-QG into NK6-AP were as follows: FITC-β-Ala-QG, NK6-AP and MTG were added to 10 mM Tris-HCl (pH 8) to give respective final concentrations of 0.1 mM, 0.5 mg/ml and 0.1 U/ml and they were thoroughly agitated at 4° C. for 0-5 hours. To trace the binding, the gel from SDS-PAGE was analyzed by a fluorescent imager.
as §1, with “1-1000 μM,” for “0.1 mM,”, “15 minutes. Tracing on” for “0-5 hours. To trace”, “sample after” for “binding,”, “reaction” for “gel from SDS-PAGE”, “performed” for “analyzed”, “the same procedure as in Experiment 2-4.” for “a fluorescent imager.”
Dns-β-Ala-QG-biotin, NK6-AP and MTG were added to 20 mM Tris-HCl (pH 8) to give respective final concentrations of 100 μM, 0.5 mg/ml, and 1 U/ml. For the purpose of comparison, an MTG-free sample was prepared. The ingredients were thoroughly agitated and the resulting solution was left to stand overnight at 4° C. for reaction.
After the reaction, the samples were subjected to SDS-polyacrylamide gel electrophoresis (SDS-PAGE). The gel from SDS-PAGE was examined with a transilluminator before it was stained with Coomassie Brilliant Blue (CBB) in solution.
To a 50 mM buffer whose pH was varied over the range of from 5 to 9, FITC-β-Ala-QG, NK6-AP and MTG were added to give respective final concentrations of 0.1 mM, 0.5 mg/ml, and 0.1 U/ml. These ingredients were well stirred and left to stand at 4° C. for reaction. After 6-hr or 15-minute reaction, the sample was mixed with a sample buffer and heated at 95° C. for 15 minutes to stop the reaction. Thereafter, SDS-polyacrylamide gel electrophoresis (SDS-PAGE) was applied. The gel from SDS-PAGE was stained with Coomassie Brilliant Blue (CBB) and observed with a fluorescent imager.
(§2) To 50 mM Tris-HCl (pH 8), FITC-β-Ala-QG, NK6-AP and MTG were added to give respective final concentrations of 0.1 mM, 0.5 mg/ml, and 0.001-1 U/ml. These ingredients were well stirred and left to stand at 4° C. for reaction. The reaction was stopped and evaluation was made by the same procedures as in Experiment 2-2.
as §2, with “FITC-β-Ala-QG-alkyne,” for “FITC-β-Ala-QG,”, “0.1” for “0.001-1”, “For the purpose of comparison, a MTG-free sample was also prepared. Both samples” for “These ingredients”

[3] = biological target: T1, NK6-AP; test: Effect of modification on the enzymatic activity of NK6-AP (p-NPP); assay type: biochemical; settings: AP 28 nM, p-NPP 1 mM, pH 8.0, 27° C., with vs without MTG
Description: The effect of introduction on the enzymatic activity was studied. In the study, p-nitrophenylphosphoric acid (p-NPP) was used as a substrate and the activities of the samples prepared in Experiment 2-2 were measured; AP would catalyze the dephosphorylation of p-NPP to form p-nitrophenol (p-NP). The reaction conditions for activity measurement were AP 28 nM, p-NPP 1 mM and pH 8.0 and at a controlled temperature of 27° C., the p-NP derived absorption at 410 nm was traced.
(§3) The activities of the samples prepared in Experiment 2-2 were measured, with p-nitrophenylphosphoric acid (p-NPP) being used as a substrate; AP would catalyze the dephosphorylation of p-NPP to form p-nitrophenol (p-NP). The reaction conditions for activity measurement were AP 28 nM, p-NPP 1 mM and pH 8.0 and at a controlled temperature of 27° C., the p-NP derived absorption at 410 nm was traced.
as §3, with “With” for “The activities of the samples prepared in Experiment 2-2 were measured, with”, “substrate, the sampled prepared in Experiment 2-4 were measured;” for “substrate;”, “(p-NP) (see below).” for “(p-NP).”

[4] = biological target: T2, MTG; test: MTG-catalyzed introduction of fluorescent substrates into anti-lysozyme IgG2a antibody; assay type: biochemical, microbial; settings: substrate 1 mM, mouse anti-lysozyme IgG2a 0.5 mg/ml, MTG 1 U/ml, pH 7, overnight 4° C.; reduced SDS-PAGE
Description: A fluorescent substrate (FITC-ε-Acp-QG, FITC-β-Ala-QG, TR-β-Ala-QG or […]), mouse-derived anti-lysozyme IgG2a antibody (monoclonal) and MTG were added to a 10 mM phosphate buffer (pH 7) to give respective final concentrations of 1 mM, 0.5 mg/ml and 1 U/ml. For the purpose of comparison, an MTG-free sample was prepared. The ingredients were thoroughly agitated and the resulting solution was left to stand overnight at 4° C.
After the reaction, the samples were subjected to SDS-PAGE. The gel from SDS-PAGE was examined with a fluorescent imager before it was stained with a CBB dye solution. For the Dns-ε-Acp-QG containing sample, examination was made with a transilluminator.

[5] = biological target: T2, MTG; test: MTG-catalyzed introduction of fluorescent substrates into NK6-AP (SDS-PAGE, fluorescent imager); assay type: biochemical, microbial; settings: substrate 1 mM, NK6-AP 0.5 mg/ml, MTG 1 U/ml, 10 mM Tris-HCl pH 8, overnight 4° C.; listed as Dns-β-Acp-QG
[6] = tested on: BSA (antigen); test: Antigen recognizing ability by ELISA (rabbit-derived anti-BSA IgG antibody); assay type: binding; settings: rabbit-derived anti-BSA IgG antibody (polyclonal) modified by MTG
Description: A study was made on samples that were prepared by introducing a fluorescent substrate (FITC-ε-Acp-QG or FITC-β-Ala-QG) into a rabbit-derived anti-BSA IgG antibody (polyclonal) under the same conditions as in Experiment 2-2.
ELISA was performed by the following procedure (FIG. 3-5). • 1) To a Black Plate, 5 mg/ml of BSA (antigen) was added in an amount of 150 µl/well and left to stand overnight at 37° C. • 2) The product of 1) was washed with PBST five times. • 3) Modified anti-BSA IgG antibodies were added in an amount of 60 µl/well and left to stand at room temperature for 5 hours. • 4) The product of 3) was washed with PBST five times. • 5) Examination was made with a fluorescent imager. • 6) A […] sample of AP-labeled anti-rabbit IgG IgG antibodies were added in an amount of 150 µl/well and left to stand at 37° C. for 3 hours. • 7) The product of 6) was washed with TBST five times. • 8) The substrate was added and 10 minutes later, fluorescence derived from the enzymatic reaction was examined with a fluorescent imager.

[7] = biological target: avidin (Gallus gallus, UniProt P02701); settings: cited from earlier work
Sequence of avidin (Gallus gallus, UniProt P02701) (P02701 25-152, species assumed): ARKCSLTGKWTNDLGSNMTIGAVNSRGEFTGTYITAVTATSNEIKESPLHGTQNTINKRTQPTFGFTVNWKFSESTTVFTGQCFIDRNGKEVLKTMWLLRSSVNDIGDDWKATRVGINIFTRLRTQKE

[8] = fluorescein in FITC-β-Ala-QG; cited from earlier work
[9] = tested on: avidin; test: Immobilizing the dual labeled protein on avidin-coated microplate; assay type: binding; settings: 1.5 μM, 37° C., 1 h; dansyl fluorescence and AP activity (ECF)
Description: 2-6. Immobilizing the Dual Labeled Protein on Microplate • 1) After His-tag purification, the dual labeled protein (1.5 μM) was dissolved in 20 mM Tris-HCl (pH 8) and added onto an avidin-coated microplate (product of Nunc) in an amount of 100 μl/well so that it would be immobilized by the interaction between biotin and avidin (37° C., 1 h). • 2) To observe the fluorescence derived from dansyl groups, 20 mM Tris-HCl (pH 8) was added in an amount of 100 μl/well and immobilization was verified by a fluorescent imager. • 3) A solution of ECF as a fluorescent substrate of AP was diluted 100 folds with 1 M Tris-HCl (pH 8) and added onto the plate in an amount of 100 μl/well for reaction with the immobilized AP (25° C., 5 min). (Before steps 2) and 3), a microplate washer was used to wash the plate with TBST (TBS+[…] Tween 20) three times each in an amount of 300 μl/well.)

In the case of `CN(C)c1cccc2c(S(=O)(=O)NCCC(=O)NC(CCC(N)=O)C(=O)NCC(=O)NCCOCCOCCNC(=O)CCCC[C@@H]3SC[C@@H]4NC(=O)N[C@@H]43)cccc12` (stereo partly drawn) [Dns-β-Ala-QG-biotin], the “Degree of labeling (moles of dansyl groups / moles of NK6-AP)” value [1] is reported as 1.1, the “Reactivity of MTG for dual labeled substrate (introduction into NK6-AP)” value ([2]; substrate 100 μM, 20 mM Tris-HCl pH 8, overnight 4° C.) is reported as “had been introduced into NK6-AP; also recorded: confirmed the MTG-catalyzed introduction” and the “Relative activity of NK6-AP after MTG-catalyzed introduction” value [3] is reported as “hardly any difference in the activity of AP; also recorded: in no way affected by the introduction”.

With `CN(C)c1cccc2c(S(=O)(=O)NCCCCCC(=O)NC(CCC(N)=O)C(=O)NCC(=O)O)cccc12` (stereo not shown) [Dns-ε-Acp-QG] ({Dansyl-Ahx}-[ξQ]-Gly-OH) the “Reactivity of MTG for fluorescent substrate (introduction into NK6-AP)” value [2] was “recognizable as a substrate of MTG”, the “Reactivity of antibody with fluorescent substrate by MTG catalysis” value [4] was “H chains of the antibody are modified; also recorded: site-specific modification of the H chains in the antibody” and the “Reactivity of MTG for fluorescent substrate (introduction into NK6-AP)” value [5] was “served as substrates of MTG”.

In the case of `NC(=O)CCC(NC(=O)CCCCCNC(=S)Nc1ccc(-c2c3ccc(=O)cc-3oc3cc(O)ccc23)c(C(=O)O)c1)C(=O)NCC(=O)O` (stereo not shown) [FITC-ε-Acp-QG], the “Reactivity of MTG for fluorescent substrate (introduction into NK6-AP)” value [2] is reported as “served as substrates of MTG; also recorded: recognizable as a substrate of MTG”, the “Reactivity of antibody with fluorescent substrate by MTG catalysis” value [4] is reported as “H chains of the antibody are modified; also recorded: site-specific modification of the H chains in the antibody” and the “Antigen recognizing ability of modified antibody” value [6] is reported as “maintained its antigen recognizing ability”.

In the case of `NC(=O)CCC(NC(=O)c1ccc(-c2c3ccc(=O)cc-3oc3cc(O)ccc23)c(C(=O)O)c1)C(=O)NCC(=O)O` (stereo not shown) [Flc-QG], the “Reactivity of MTG for fluorescent substrate (introduction into NK6-AP)” value [2] is reported as “not recognizable by MTG; also recorded: not recognized as a substrate”.

For `O=C(O)CCCC[C@@H]1SC[C@@H]2NC(=O)N[C@@H]21` [biotin], the Ka [7] is listed as 10^15 M.

For fluorescein isothiocyanate [FITC], the pKa [8] is listed as 6.4.

B1: dual labeled protein: NK6-AP into which Dns-β-Ala-QG-biotin was introduced by MTG catalysis (conjugate)
chain: MKHKGSTPEMPVLENRAAQGDITAPGGARRLTGDQTAALRDSLSDKPAKNIILLIGDGMGDSEITAARNYAEGAGGFFKGIDALPLTGQYTHYALNKKTGKPDYVTDSAASATAWSTGVKTYNGALGVDIHEKDHPTILEMAKAAGLATGNVSTAELQDATPAALVAHVTSRKCYGPSATSEKCPGNALEKGGKGSITEQLLNARADVTLGGGAKTFAETATAGEWQGKTLREQAQARGYQLVSDAASLNSVTEANQQKPLLGLFADGNMPVRWLGPKATYHGNIDKPAVTCTPNPQRNDSVPTLAQMTDKAIELLSKNEKGFFLQVEGASIDKQDHAANPCGQIGETVDLDEAVQRALEFAKKEGNTLVIVTADHAHASQIVAPDTKAPGLTQALNTKDGAVMVMSYGNSEEDSQEHTGSQLRIAAYGPHAANVVGLTDQTDLFYTMKAALGLKLEHHHHHH
For B1, the “Immobilization on avidin-coated microplate” value [9] was “immobilized on the microplate while retaining its function”.

Source: patent US20110184147A1, “ENZYME SUBSTRATE FOR LABELING OF PROTEIN” (priority 2008, published 2011)
